Results on 17 compounds are retold here after patent US11180474B2 (BRISTOL-MYERS SQUIBB COMPANY, priority 2016, dated 2021).

The target of one experiment is T1, human TLR7 (Homo sapiens, UniProt Q9NYK1).
T1 construct: host or cells: HEK-Blue cells
T1 sequence (Q9NYK1 27-1049): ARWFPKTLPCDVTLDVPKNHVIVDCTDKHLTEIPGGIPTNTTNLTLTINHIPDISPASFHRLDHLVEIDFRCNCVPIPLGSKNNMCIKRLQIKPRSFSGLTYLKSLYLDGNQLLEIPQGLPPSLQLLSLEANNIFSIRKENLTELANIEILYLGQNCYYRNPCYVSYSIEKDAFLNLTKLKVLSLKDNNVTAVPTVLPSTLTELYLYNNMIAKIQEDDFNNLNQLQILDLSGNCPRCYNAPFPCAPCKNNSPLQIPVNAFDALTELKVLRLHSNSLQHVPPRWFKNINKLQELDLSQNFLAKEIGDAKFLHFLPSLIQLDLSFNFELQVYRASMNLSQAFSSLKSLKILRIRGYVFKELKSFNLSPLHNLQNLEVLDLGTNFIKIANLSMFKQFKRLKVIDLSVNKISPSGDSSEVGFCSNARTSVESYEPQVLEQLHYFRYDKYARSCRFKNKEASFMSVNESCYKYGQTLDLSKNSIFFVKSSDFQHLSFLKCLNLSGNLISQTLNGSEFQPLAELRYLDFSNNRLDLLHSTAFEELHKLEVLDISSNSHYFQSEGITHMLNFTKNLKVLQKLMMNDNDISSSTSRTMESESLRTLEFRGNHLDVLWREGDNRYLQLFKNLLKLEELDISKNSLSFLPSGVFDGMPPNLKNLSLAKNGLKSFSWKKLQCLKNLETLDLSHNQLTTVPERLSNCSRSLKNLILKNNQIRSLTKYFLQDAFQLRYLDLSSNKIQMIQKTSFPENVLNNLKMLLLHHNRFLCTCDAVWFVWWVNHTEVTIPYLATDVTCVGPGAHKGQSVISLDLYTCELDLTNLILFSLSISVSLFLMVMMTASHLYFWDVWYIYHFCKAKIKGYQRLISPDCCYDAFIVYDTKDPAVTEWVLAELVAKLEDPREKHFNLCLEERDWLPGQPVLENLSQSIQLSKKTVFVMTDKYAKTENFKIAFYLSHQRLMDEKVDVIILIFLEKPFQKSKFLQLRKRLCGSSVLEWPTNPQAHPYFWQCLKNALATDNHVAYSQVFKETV
Description: TLR7 inhibition reporter assay (HEK-Blue cells, SEAP reporter, gardiquimod stimulation). It is filed as cell-based. As to conditions: HEK-Blue cells overexpressing human TLR7, gardiquimod 7.5 μM. Here is the method:
(§1) TLR7/8/9 Inhibition Reporter Assays
Briefly, cells are seeded into Greiner 384 well plates (15000 cells per well for TLR7, 20,000 for TLR8 and 25,000 for TLR9) and then treated with test compounds in DMSO to yield a final dose response concentration range of 0.05 nM-50 μM. […] After a 22 hour incubation at 37° C., 5% CO2, SEAP levels are determined with the addition of HEK-Blue™ Detection reagent (Invivogen), a cell culture medium that allows for detection of SEAP, according to manufacturer's specifications. The percent inhibition is determined as the % reduction in the HEK-Blue signal present in wells treated with agonist plus DMSO alone compared to wells treated with a known inhibitor.
In general terms: Reporter assays use an easily measured gene product as a stand-in for the process of interest.

In another experiment the target is T2, human TLR9 (Homo sapiens, UniProt Q9NR96).
T2 construct: host or cells: HEK-Blue cells
T2 sequence (Q9NR96 26-1032): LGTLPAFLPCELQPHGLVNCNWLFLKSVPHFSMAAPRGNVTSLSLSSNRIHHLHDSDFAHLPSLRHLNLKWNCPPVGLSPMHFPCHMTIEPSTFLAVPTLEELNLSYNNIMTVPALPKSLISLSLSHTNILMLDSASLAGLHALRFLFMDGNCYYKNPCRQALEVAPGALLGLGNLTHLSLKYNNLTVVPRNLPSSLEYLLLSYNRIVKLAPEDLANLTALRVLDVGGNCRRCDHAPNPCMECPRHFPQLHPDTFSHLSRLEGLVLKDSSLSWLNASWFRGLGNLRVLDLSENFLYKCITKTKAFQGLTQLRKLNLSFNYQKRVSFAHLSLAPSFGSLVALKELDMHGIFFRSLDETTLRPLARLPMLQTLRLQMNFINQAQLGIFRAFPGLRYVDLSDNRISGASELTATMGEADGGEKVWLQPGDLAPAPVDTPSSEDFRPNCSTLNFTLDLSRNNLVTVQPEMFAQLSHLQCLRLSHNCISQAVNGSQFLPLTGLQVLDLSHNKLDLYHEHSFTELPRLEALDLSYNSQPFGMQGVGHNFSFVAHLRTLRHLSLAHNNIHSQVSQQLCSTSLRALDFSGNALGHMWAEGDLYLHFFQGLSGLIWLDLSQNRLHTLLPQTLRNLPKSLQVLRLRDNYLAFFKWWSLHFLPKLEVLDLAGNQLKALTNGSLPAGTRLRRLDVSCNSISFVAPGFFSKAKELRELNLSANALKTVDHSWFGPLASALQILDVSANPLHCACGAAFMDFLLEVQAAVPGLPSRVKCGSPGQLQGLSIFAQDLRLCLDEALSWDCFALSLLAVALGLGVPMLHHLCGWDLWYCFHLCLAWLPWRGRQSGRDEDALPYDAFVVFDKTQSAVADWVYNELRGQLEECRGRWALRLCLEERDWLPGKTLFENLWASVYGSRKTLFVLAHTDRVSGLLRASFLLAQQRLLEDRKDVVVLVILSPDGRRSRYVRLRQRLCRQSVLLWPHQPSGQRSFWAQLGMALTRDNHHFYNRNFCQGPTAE
Description: TLR9 inhibition reporter assay (HEK-Blue cells, SEAP reporter, ODN2006 stimulation). It is filed as cell-based. Particulars: HEK-Blue cells overexpressing human TLR9, ODN2006 5 nM. Here is the method:
as §1
HEK-Blue™-cells (Invivogen) overexpressing human TLR7, TLR8 or TLR9 receptors were used for screening inhibitors of these receptors using an inducible SEAP (secreted embryonic alkaline phosphatase) reporter gene under the control of the IFN-β minimal promoter fused to five NF-κB and AP-1-binding sites. Briefly, cells are seeded into Greiner 384 well plates (15000 cells per well for TLR7, 20,000 for TLR8 and 25,000 for TLR9) and then treated with test compounds in DMSO to yield a final dose response concentration range of 0.05 nM-50 μM. After a 30 minute compound pre-treatment at room temperature, the cells are then stimulated with a TLR7 ligand (gardiquimod at a final concentration of 7.5 μM), TLR8 ligand (R848 at a final concentration of 15.9 μM) or TLR9 ligand (ODN2006 at a final concentration of 5 nM) to activate NF-κB and AP-1 which induce the production of SEAP. After a 22 hour incubation at 37° C., 5% CO2, SEAP levels are determined with the addition of HEK-Blue™ Detection reagent (Invivogen), a cell culture medium that allows for detection of SEAP, according to manufacturer's specifications. The percent inhibition is determined as the % reduction in the HEK-Blue signal present in wells treated with agonist plus DMSO alone compared to wells treated with a known inhibitor.

Counter-ions that a name gives are not always drawn.

In the case of `COc1ccc(-c2[nH]c3ccc(C4CCN(Cc5cc6ccccc6n5C)CC4)cc3c2C)cc1OC` [Example 33, 2-(3,4-dimethoxyphenyl)-3-methyl-5-(1-((1-methyl-1H-indol-2-yl)methyl)piperidin-4-yl)-1H-indole], the figures for the IC50 against human TLR7 and on human TLR9 were at least 50000 nM and 3720 nM, respectively.
For `COc1ccc(-c2[nH]c3ccc(C4CCN(Cc5ccc(-n6ccnc6)cc5)CC4)cc3c2C)cc1OC` [Example 39, 5-(1-(4-(1H-imidazol-1-yl)benzyl)piperidin-4-yl)-2-(3,4-dimethoxyphenyl)-3-methyl-1H-indole], the IC50 amounted to 1980 nM at human TLR7 and 251 nM against human TLR9.
The corresponding values for `COc1ccc(-c2[nH]c3ccc(C4CCN(Cc5ccc(N(C)C)c6ccccc56)CC4)cc3c2C)cc1OC` [Example 19, 4-((4-(2-(3,4-dimethoxyphenyl)-3-methyl-1H-indol-5-yl)piperidin-1-yl)methyl)-N,N-dimethylnaphthalen-1-amine] are 10500 nM and 2550 nM.
For `COc1ccc(-c2[nH]c3ccc(C4CCN(C5CCN(CCCC(=O)O)CC5)CC4)cc3c2C)cc1OC` [Example 70, 4-(4-(2-(3,4-dimethoxyphenyl)-3-methyl-1H-indol-5-yl)-[1,4′-bipiperidin]-1′-yl)butanoic acid] the same measures were 3750 nM and 2280 nM.
For `COc1ccc(-c2[nH]c3ccc(C4CCN(C5CCN(C6CCCC(C)C6)CC5)CC4)cc3c2C)cc1OC` (centres unmarked) [Example 67, 2-(3,4-dimethoxyphenyl)-3-methyl-5-(1′-(3-methylcyclohexyl)-[1,4′-bipiperidin]-4-yl)-1H-indole], the values for the concentration for half-maximal inhibition (IC50) on human TLR7 and against human TLR9 were 1950 nM and 70 nM, respectively.
The corresponding values for `COc1ccc(-c2[nH]c3ccc(C4CCN(Cc5ccc(N(C)C)cc5)CC4)cc3c2C(C)C)cc1OC` [Example 270, 4-((4-(2-(3,4-dimethoxyphenyl)-3-isopropyl-1H-indol-5-yl)piperidin-1-yl)methyl)-N,N-dimethylaniline] are 191 nM and 1940 nM.
In turn, `COc1ccc(-c2[nH]c3ccc(C4CCNCC4)cc3c2C)cc1OC` [Example 1, 2-(3,4-dimethoxyphenyl)-3-methyl-5-(piperidin-4-yl)-1H-indole hydrochloride] gave an IC50 against human TLR9 of 5910 nM.
Turning to `COc1ccc(-c2[nH]c3ccc(C4CCN(Cc5ccc(OC(F)(F)F)cc5)CC4)cc3c2C(C)C)cc1OC` [Example 271, 2-(3,4-dimethoxyphenyl)-3-isopropyl-5-(1-(4-(trifluoromethoxy)benzyl)piperidin-4-yl)-1H-indole], the figures for the IC50 against human TLR7 and against human TLR9 were 2380 nM and 10600 nM, respectively.
Take `COc1ccc(-c2[nH]c3ccc(C4CCN(C5CCCC(N)C5)CC4)cc3c2C)cc1OC` (centres unmarked) [Example 105, 3-(4-(2-(3,4-dimethoxyphenyl)-3-methyl-1H-indol-5-yl)piperidin-1-yl)cyclohexan-1-amine]: the IC50 turned out to be 144 nM against human TLR7 and 385 nM against human TLR9.
For `COc1ccc(-c2[nH]c3ccc(C4CCN(CCCO)CC4)cc3c2C)cc1OC` [Example 5, 3-(4-(2-(3,4-dimethoxyphenyl)-3-methyl-1H-indol-5-yl)piperidin-1-yl)propan-1-ol] the same measures were 1710 nM and 447 nM.
For `COc1ccc(-c2[nH]c3ccc(C4CCN(Cc5cccnc5)CC4)cc3c2C)cc1OC` [Example 47, 2-(3,4-dimethoxyphenyl)-3-methyl-5-(1-(pyridin-3-ylmethyl)piperidin-4-yl)-1H-indole] the same measures were 589 nM and 1080 nM.
For `COc1ccc(-c2[nH]c3ccc(C4CCN(C(C)CN(C)C)CC4)cc3c2C)cc1OC` (centres unmarked) [Example 30, 2-(4-(2-(3,4-dimethoxyphenyl)-3-methyl-1H-indol-5-yl)piperidin-1-yl)-N,N-dimethylpropan-1-amine] the same measures were 666 nM and 860 nM.
As to `CCCC[C@@H](CO)NCC(=O)N1CCC(c2ccc3[nH]c(-c4ccc(OC)c(OC)c4)c(CC)c3c2)CC1` [Example 174, (S)-1-(4-(2-(3,4-dimethoxyphenyl)-3-ethyl-1H-indol-5-yl)piperidin-1-yl)-2-((1-hydroxyhexan-2-yl)amino)ethan-1-one], the results for the IC50 at human TLR7 and against human TLR9 were 1180 nM and 2570 nM, respectively.
The corresponding values for `CNCCCN1CCC(c2ccc3[nH]c(-c4ccc(OC)c(OC)c4)c(C)c3c2)CC1` [Example 102, 3-(4-(2-(3,4-dimethoxyphenyl)-3-methyl-1H-indol-5-yl)piperidin-1-yl)-N-methylpropan-1-amine] are 559 nM and 382 nM.
For `COc1ccc(-c2[nH]c3ccc(C4CCN(CCN)CC4)cc3c2C)cc1OC` [Example 100, 2-(4-(2-(3,4-dimethoxyphenyl)-3-methyl-1H-indol-5-yl)piperidin-1-yl)ethan-1-amine] the same measures were 175 nM and 543 nM.
The corresponding values for `CCc1c(-c2ccc(OC)c(OC)c2)[nH]c2ccc(C3CCN(C(=O)CNCC(C)(C)CO)CC3)cc12` [Example 164, 1-(4-(2-(3,4-dimethoxyphenyl)-3-ethyl-1H-indol-5-yl)piperidin-1-yl)-2-((3-hydroxy-2,2-dimethylpropyl)amino)ethan-1-one] are 160 nM and 2130 nM.
Take `COc1ccc(-c2[nH]c3ccc(C4CCN(Cc5nccn5C)CC4)cc3c2C)cc1OC` [Example 16, 2-(3,4-dimethoxyphenyl)-3-methyl-5-(1-((1-methyl-1H-imidazol-2-yl)methyl)piperidin-4-yl)-1H-indole]: at human TLR9, the IC50 turned out to be 1970 nM.

As usually defined, the IC50 is the midpoint of a concentration-inhibition curve. A high value points to lower potency.
